The values that follow come from ChEMBL document CHEMBL4627354, “Antifungal polyketide derivatives from the endophytic fungus Aplosporella javeedii” (Bioorg Med Chem, 2020).

The term MIC denotes the lowest concentration that inhibits growth of the organism.

In series [1] the test system is Enterococcus faecalis. In words: Antibacterial activity against Enterococcus faecalis ATCC 29212 by CLSI broth microdilution method. It counts as functional, organism-based. (Broth dilution looks for growth in wells or tubes with falling amounts of substance.)
The test system of series [2] is Candida albicans. Put plainly: Antifungal activity against hyphae form of Candida albicans ATCC 24433 incubated for overnight by disc diffusion method. It counts as functional, organism-based. On the technique in general: A growth-free zone around the sample is the usual read-out of agar diffusion tests.
For series [3], the system named is Staphylococcus aureus. In words: Antibacterial activity against methicillin-resistant and […] Staphylococcus aureus ATCC 700699 by CLSI broth microdilution method. The class given is functional. The note with it: Mu50 ATCC 700699.
Series [4] has as its system Mycobacterium tuberculosis. In words: Antibacterial activity against Mycobacterium tuberculosis H37Rv by CLSI broth microdilution method. The class given is functional, organism-based.
Series [5] relates to Enterococcus faecium. Put plainly: Antibacterial activity against Enterococcus faecium ATCC 700221 by CLSI broth microdilution method. The class given is functional, organism-based.
In series [6] the test system is Enterococcus faecium. In words: Antibacterial activity against Enterococcus faecium ATCC 35667 by CLSI broth microdilution method. The class given is functional, organism-based.
The next series relates to Escherichia coli. In words: Antibacterial activity against Escherichia coli ATCC 25922 by CLSI broth microdilution method. It counts as functional, organism-based.
Series [7] relates to Saccharomyces cerevisiae. Put plainly: Antifungal activity against Saccharomyces cerevisiae incubated for overnight by disc diffusion method. It counts as functional, organism-based.
The subject of the next series is Bacillus subtilis. Put plainly: Antibacterial activity against Bacillus subtilis ATCC 169 by CLSI broth microdilution method. It counts as functional.
The test system of series [8] is Enterococcus faecalis. In words: Antibacterial activity against Enterococcus faecalis ATCC 51299 by CLSI broth microdilution method. The class given is functional, organism-based.
The subject of series [9] is Staphylococcus aureus. Put plainly: Antibacterial activity against Staphylococcus aureus ATCC 29213 by CLSI broth microdilution method. The class given is functional.
The subject of series [10] is Candida albicans. Put plainly: Fungicidal activity against hyphae form of Candida albicans ATCC 24433 assessed as reduction in bacterial viability at 474 uM measured after 6 hrs by time kill assay. The class given is functional, organism-based.
Series [11] has as its system Candida albicans. In words: Antifungal activity against hyphae form of Candida albicans ATCC 24433 assessed as diameter of zone inhibition at 1 mM incubated for overnight by disc diffusion method. The conditions noted are these: read-out: DIZ. The class given is functional.
A further series has as its system Huh-7. Put plainly: Cytotoxicity against human HuH7 cells assessed as reduction in cell viability up to 100 uM measured after 48 hrs by resazurin based fluorescence assay. The note with it: huh-7, 48 h. In general terms: Alamar Blue is a resazurin reagent that responds to reducing activity.
Series [12] has as its system Candida albicans. In words: Fungicidal activity against hyphae form of Candida albicans ATCC 24433 assessed as log reduction in bacterial viability at 400 uM measured after 6 hrs by time kill assay. It counts as functional.
The subject of series [13] is Candida albicans. In words: Antifungal activity against hyphae form of Candida albicans ATCC 24433 assessed inhibition of visible microbe growth incubated for overnight by CLSI microbroth dilution method. The class given is functional.
For series [14], the system named is Saccharomyces cerevisiae. Put plainly: Antifungal activity against Saccharomyces cerevisiae assessed as diameter of zone inhibition incubated for overnight by disc diffusion method. The class given is functional.
A further series relates to THP-1. Put plainly: Cytotoxicity against human THP1 cells assessed as reduction in cell viability up to 100 uM measured after 48 hrs by resazurin based fluorescence assay. The note with it: thp-1, 48 h.
Series [15] is described as follows: Cytotoxicity against human CLS54 cells assessed as reduction in cell viability up to 100 uM measured after 48 hrs by resazurin based fluorescence assay.

Values after ≈ are worked out from the molar mass of the structure shown. Active and inactive are the calls of the source. No cut-off for these calls is given here.

On to `Cc1c(CCCC(O)CO)cc(O)c(C=O)c1O` (stereo unspecified), for which the outcome (with Enterococcus faecalis [1]; in the series with Candida albicans [2]; with Staphylococcus aureus [3]; in series [4]; with Enterococcus faecium [5]; in the series on Enterococcus faecium [6]) was inactive. Further, the outcome with Escherichia coli, in the series on Saccharomyces cerevisiae [7], with Bacillus subtilis, in the series on Enterococcus faecalis [8] and in the series on Staphylococcus aureus [9] was inactive.

Turning to `Cc1c(CCCCCO)cc(O)c(C=O)c1O`, the result (in the series on Enterococcus faecalis [1]; in the series on Candida albicans [2]; in the series with Staphylococcus aureus [3]; in series [4]; in the series on Enterococcus faecium [5]; in the series with Enterococcus faecium [6]) was inactive. Also, the result in the series with Escherichia coli, with Saccharomyces cerevisiae [7], with Bacillus subtilis, with Enterococcus faecalis [8] and in the series on Staphylococcus aureus [9] was inactive.

For `Cc1c(CCCCC(=O)O)cc(O)c(C=O)c1O`, the outcome (with Enterococcus faecalis [1]; in the series with Candida albicans [2]; with Staphylococcus aureus [3]; in [4]; with Enterococcus faecium [5]; in the series on Enterococcus faecium [6]) was inactive. Further, the outcome in the series on Escherichia coli, with Saccharomyces cerevisiae [7], in the series on Bacillus subtilis, in the series on Enterococcus faecalis [8] and in the series with Staphylococcus aureus [9] was inactive.

`CN[C@H]1C[C@@H](N)[C@H](O)[C@@H](O[C@@H]2O[C@H](CO)[C@H](O)[C@@H]3O[C@@]4(O[C@H]23)O[C@H]([C@H](N)CO)[C@H](O)[C@H](O)[C@H]4O)[C@@H]1O`: the result in the series with Candida albicans [10] was Active.

Regarding `CCCCCc1cc(O)c(C=O)c(O)c1C`, the zone of inhibition at 1000 µM in the series with Candida albicans [11] was found to be 8 mm. The Activity result (in the series with Huh-7; with THP-1; in [15]) was “Non-Toxic” throughout. The outcome (in the series on Enterococcus faecalis [1]; in [4]; with Enterococcus faecium [5]; in the series with Enterococcus faecium [6]; in the series with Escherichia coli; in the series with Enterococcus faecalis [8]) was inactive. For the same compound, the “log(activity)” value in the series with Candida albicans [12] stood at 3.5. Besides, the minimum inhibitory concentration (MIC) in the series on Staphylococcus aureus [3] turned out to be 50 µM (≈ 11.1 µg/mL); in the series on Candida albicans [13], 100 µM (≈ 22.2 µg/mL); against Bacillus subtilis, 25 µM (≈ 5.56 µg/mL); with Staphylococcus aureus [9], 50 µM (≈ 11.1 µg/mL). The “diameter of the inhibition zone (DIZ)” value with Saccharomyces cerevisiae [14] was 18 mm.

`Cc1c(CCC(=O)O)cc(O)c(C=O)c1O`: the result (in the series with Enterococcus faecalis [1]; in the series with Candida albicans [2]; in series [4]; in the series on Enterococcus faecium [5]; with Enterococcus faecium [6]; in the series on Escherichia coli) was inactive. Further, the outcome in the series with Saccharomyces cerevisiae [7], with Bacillus subtilis and with Enterococcus faecalis [8] was inactive. Further, the MIC in the series with Staphylococcus aureus [3] amounted to 50 µM (≈ 11.2 µg/mL); against Staphylococcus aureus [9], 25 µM (≈ 5.61 µg/mL).
